{"source": "paper PMC6627486", "about": "“Ipomoeassin F Binds Sec61α to Inhibit Protein Translocation” (Journal of the American Chemical Society, 2019)", "key": {"MDA-MB-231": {"tested_on": "MDA-MB-231", "assay": "AlamarBlue cytotoxicity assay, MDA-MB-231", "assay_type": "cell-based, human", "settings": "MDA-MB-231, 72 h, AlamarBlue; read-out: Cytotoxicity (IC50)", "description": "(§1) AlamarBlue Cytotoxicity Assay\n(§2) MDA-MB-231, MCF-10A and HCT116. Viable cells were counted with a hemocytometer immediately before each experiment . Experiments were done in triplicate. First, 100 μL of MDA-MB-231 cells or MCF-10A cells at the density of 50,000 cells/mL was seeded in a 96-well plate (5,000 cells/well) and then incubated at 37 °C and 5% CO2 for 24 h. The compounds were dissolved in DMSO (dimethyl sulfoxide) to make drug stocks (10 mM). The stock solutions were diluted with the complete DMEM high glucose culture medium to make a series of gradient fresh working solutions right before each test. Subsequently, the cells were treated with 100 μL of the freshly made gradient working solution in a total volume of 200 μL/well for 72 h. After that, the media were discarded and 200 μL of the fresh complete medium containing 10% of AlamarBlue (resazurin) stock solution was added to each well. The plate was then incubated at 37 °C and 5% CO2 for another 3 h. Emission of each well at 620 nm was detected by a microplate reader (BioTek Synergy H1) at excitation 580 nm. […]\n(§3) Microplate Reader. The percentage of viability compared to the negative control (DMSO-treated cells) […]\n(§4) was determined. […]"}, "MCF7": {"tested_on": "MCF7", "assay": "MTT cytotoxicity assay, MCF7", "assay_type": "cell-based, human", "settings": "MCF7, 72 h, MTT; read-out: Cytotoxicity (IC50)", "description": "Two human breast cancer cell lines (MDA-MB-231 and MCF7) and one human breast non-tumorigenic epithelial cell line (MCF-10A) were maintained in a DMEM high glucose culture medium supplemented with 10% fetal bovine serum (FBS) and 2 mM L-glutamine. The cells were grown in a humidified atmosphere of 5% CO2 and 95% air at 37 °C . The culture medi um w as changed every 2–4 days depending on cell density. Cell cultures were passaged once a week using 0.125% trypsin-EDTA to detach the cells from culture flasks/dishes.\nThe human colorectal cancer cell line HCT116 was maintained in McCoy’s 5A (modified) medium supplemented with 10% fetal bovine serum (FBS). The human embryonic kidney (HEK293T and HEK293 FRT TRex) cell line was maintained in DMEM high glucose culture medium supplemented with 10% fetal bovine serum (FBS).\nHepG2 cells were cultured in DMEM supplemented with 10% fetal bovine serum and 2 mM L-glutamine at 37°C under 5% CO2.\nViable cells were counted with a hemocytometer immediately before each experiment. Experiments were done in triplicate. First, 100 μL of MCF7 cells at the density of 50,000 cells/mL were seeded in a 96-well plate (5,000 cells/well), which was incubated at 37 °C and 5% CO2 atmosphere for 24 h. The compounds were dissolved in DMSO (dimethyl sulfoxide) to make drug stocks (10 mM). The stock solutions were diluted with the complete DMEM high glucose culture medium to make a series of gradient fresh working solutions right before each test. Subsequently, the cells were treated with 100 μL of the freshly made gradient working solution in a total volume of 200 μL/well for 72 h. After that, the media were discarded and 200 μL of the fresh complete medium containing 10% of MTT stock solution (5 mg/mL) was added to each well. The plate was then incubated at 37 °C and 5% CO2 for 3 h. Next, 180 μL of the medium was discarded from each well , and 180 μL of DMSO was added to each well to dissol ve formazan crystals. Absorbance of formazan was detected by a microplate reader (BioTek Synergy H1) at 570 nm with 650 nm as the reference wavelength. The percentage of viability compared to the negative control (DMSO-treated cells) was determined . GraphPad Prism 6 software was used to make a plot of %"}, "MCF-10A": {"tested_on": "MCF-10A", "assay": "AlamarBlue cytotoxicity assay, MCF-10A", "assay_type": "cell-based, human", "settings": "72 h", "description": "as §1, §2, §3, §4"}, "HCT116": {"tested_on": "HCT116", "assay": "cells", "assay_type": "cell-based", "settings": "Homo sapiens, HCT-116; HCT116, 72 h, Alamar Blue, assayed separately; read-out: Cytotoxicity (IC50)", "description": "as §1\nas §2, with “nm. For HCT116 WT and mutant lines, cells were seeded at 1000 cells/ well in complete McCoys medium. Compounds were diluted from a DMSO stock into culture medium as described above. Cells were treated for 96 h, then viability measured with AlamarBlue, detected using the conditions described but with a BMG Fluostar Optima Microplate Reader. The percentage of viability compared to the negative control (DMSO-treated cells) was determined.” for “nm.”\nHCT116 and HEK293T. Viable cells were counted using an automated cell counter (BioRad TC20) before each experiment. […] Emission of each well at 620 nm was detected by a microplate reader (Perkin Elmer EnSpire) at excitation 580 nm. The percentage of viability compared to the negative control (DMSO -treated cells) was determined. […]\nFigure S1. […] (C) HCT116 colon carcinoma cells were treated with increasing concentrations of analogues 8, 14, 15, CT8, ipomoeassin F or carrier (0.1% DMSO) and cell viability was assessed at 72 h by the Alamar Blue assay (mean ± S.D., n = 4). […]"}, "[1]": {"target": "T1, Sec61-mediated protein translocation (Canis lupus familiaris, UniProt P38377)", "T1 construct": "ER microsomes derived from canine pancreas; from tissue; host or cells: canine pancreas ER microsomes (nuclease-treated)", "T1 sequence (P38377 whole entry)": "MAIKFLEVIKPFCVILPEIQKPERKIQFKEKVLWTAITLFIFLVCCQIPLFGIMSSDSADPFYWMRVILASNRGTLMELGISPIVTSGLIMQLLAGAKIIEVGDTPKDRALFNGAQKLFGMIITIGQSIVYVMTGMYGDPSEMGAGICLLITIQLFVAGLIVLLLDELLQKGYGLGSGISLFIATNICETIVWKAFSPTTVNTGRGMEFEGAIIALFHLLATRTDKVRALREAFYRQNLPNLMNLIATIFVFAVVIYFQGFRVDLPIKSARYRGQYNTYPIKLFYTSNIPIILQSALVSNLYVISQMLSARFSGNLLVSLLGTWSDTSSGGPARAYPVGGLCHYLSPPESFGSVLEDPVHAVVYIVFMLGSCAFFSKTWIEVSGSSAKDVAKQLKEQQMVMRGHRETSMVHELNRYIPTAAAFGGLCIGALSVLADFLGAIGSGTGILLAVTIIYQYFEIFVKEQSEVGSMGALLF", "T1 sequence (P60467 whole entry, further chain)": "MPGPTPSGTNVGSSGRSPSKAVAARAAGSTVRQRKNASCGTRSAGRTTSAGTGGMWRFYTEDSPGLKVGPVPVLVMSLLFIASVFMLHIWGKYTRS", "T1 sequence (P60058 whole entry, further chain)": "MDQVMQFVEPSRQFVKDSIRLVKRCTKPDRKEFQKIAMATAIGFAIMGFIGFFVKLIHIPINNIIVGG", "assay": "In vitro translation and Sec61-dependent translocation into ER microsomes", "assay_type": "biochemical, canine", "settings": "type II membrane protein Ii, ER microsomes", "excerpt": "In Vitro Membrane Translocation Assays.\nUnless otherwise stated, all cDNAs are of human origin and as previously described: CytB5OPG2,16 GypC,17 ppαF (Saccharomyces cerevisiae),16 ppcecAOPG2 (Hyalophora cecropia),16 PPL (Bos Taurus),16 Sec61βOPG216 and VCAM1.17 Ii encodes residues 17 to 232 of the short form of human HLA class II histocompatibility antigen gamma chain (Ii; P04232, isoform 2). Linear DNA templates were generated by PCR and transcribed into RNA using T7 or SP6 polymerase (Promega).\nIn vitro translation and translocation into ER microsomes\nTranslation reactions (20 μL) were performed in nuclease-treated rabbit reticulocyte lysate (Promega) in the presence of EasyTag EXPRESS 35S Protein Labelling Mix containing [35S] methionine (Perkin Elmer) (0.533 MBq; 30.15 TBq/mmol). Amino acids minus methionine (Promega) were added to 25 µM each, […]\nequivalent volume of DMSO, and nuclease-treated ER microsomes (from stock with OD280 = 44/mL) were added to 6.5% (v/v). Lastly, 10% volume of in vitro transcribed mRNA (from 200-1000 ng/μL stocks) encoding the relevant precursor protein was added and translation reactions performed for 20 min at 30°C. Following incubation with 0.1 mM puromycin for 5 min at 30°C to ensure translational termination and ribosome release, membrane-associated fractions were isolated by centrifugation through an 80 μL high-salt cushion (0.75 M sucrose, 0.5 M KOAc, 5 mM Mg(OAc)2, 50 mM Hepes-KOH, pH 7.9) at 100,000 x g for 10 min at 4°C in a TLA100 rotor (Beckmann). Membrane pellets were suspended directly in SDS (sodium dodecyl sulphate) sample buffer (0.02% bromophenol blue, 62.5 mM, 4% (w/v) SDS, 10% (v/v) glycerol, pH 7.6, 1 M dithiothreitol) and, where indicated, treated with 1,000 U of Endoglycosidase H (New England Biolabs) for 30 min at 37°C prior to analysis. All samples were denatured for 10 min at 70°C prior to resolution by SDS-PAGE (12% or 16% polyacrylamide gels, 120 V, 120 min), gels were fixed (20% MeOH, 10% AcOH) for 5 min, dried (BioRad gel dryer) for 2 h at 65°C and, following exposure to a phosphorimaging plate for 24-72 h, radiolabelled products were visualised using a Typhoon FLA-7000 (GE Healthcare).\nQuantitative analysis of Ii membrane insertion was performed using AIDA v.5.0 (Raytest Isotopenmeβgeräte) whereby the ratio of the signal intensity for the 2Gly/0Gly forms was used as a read-out to estimate efficiency of integration into the ER membrane. This value was then expressed relative to the matched DMSO control in order to derive the mean relative ER insertion from three independent experiments (n=3). Statistical significance of the effectiveness of Ipom-F analogues (RM one-way ANOVA) was determined using Tukey’s multiple comparisons test. IC50 value estimates were determined using non-linear regression to fit data to a curve of variable slope (four parameters) using the least squares fitting method in which the bottom and top plateaus of the curve were defined as 0% and 100% respectively. The differences between the estimated IC50 values for the three compounds analysed were statistically significant (****) according to the extra-sum-of-squares F test. Statistical analyses and IC50 estimates were performed using Prism 7.0d (GraphPad) with statistical significance given as n.s., non - significant and ****, P < 0.0001.\nU2-OS secNLuc-ATZ Secretion and Cell Viability Assays"}, "HCT-116 cells": {"tested_on": "HCT-116 cells", "assay": "Metabolic labelling of nascent proteins in HCT116 cells", "assay_type": "cell-based, human", "settings": "HCT-116, 1 μM, 35S labelling", "description": "Metabolic Labelling Assays in HCT116 Cells\nHCT116 cells were counted using an automated cell counter (BioRad TC20) immediately prior to each experiment. 3 ml of HCT116 cells at a density of 0.166x10^6 cells/mL were seeded to 6-well plates (0.5x10^6 cells/well) and then incubated at 37 °C and 5% CO 2 for 24 h. The compounds were dissolved in DMSO to make drug stocks (10 mM). The stock solutions were diluted with DMEM high glucose culture medium lacking methionine and cysteine to make a fresh working solution immediately prior to each test. Cells were washed twice and 1ml of fresh DMEM lacking methionine and cysteine was added to each well.\nSubsequently, the cells were treated with 250 µl of compound solutions in a total volume of 1 ,250 µl/well.\nThe plate was then incubated at 37 °C and 5% CO 2 for 30 min before 100 µCi 35S-labelled methionine/cysteine was added (Expre35s35s protein labelling mix). Plates were incubated for a further 30 min, then media collected and cells harvested by scraping after four washes in ice-cold PBS. Total protein was acquired by RIPA extraction from the cell pellet, cytoplasmic fraction was acquired by partial permeabilization of the outer cell membranes with 0.15% Digitonin followed by centrifugation, secreted proteins were acquired by TCA precipitation of the media. […]"}, "[2]": {"tested_on": "A2780 human ovarian cancer cells", "set-up": "method as in PMID 15844934", "settings": "read-out: IC50, proliferation of A2780 cells; cited from earlier work"}}}
{"smiles": "C/C=C(\\C)C(=O)O[C@@H]1[C@@H](O)[C@@H]2O[C@H]3[C@H](O[C@@H](CCCCC)CCCCCCC(=O)CCC(=O)OC[C@@H](O2)[C@H]1OC(=O)/C=C/c1ccc(OCc2cn(CCOCCOCCOCCNS(=O)(=O)c4ccc(-c5c6ccc(=[N+](CC)CC)cc-6oc6cc(N(CC)CC)ccc56)c(S(=O)(=O)[O-])c4)nn2)cc1)O[C@H](C)[C@H](OC(C)=O)[C@@H]3O", "note": "[compound 12]", "values": [{"measurement": "IC50", "setting": "MDA-MB-231", "value": 253, "unit": "nM"}, {"measurement": "IC50", "setting": "MCF7", "value": 172, "unit": "nM"}, {"measurement": "IC50", "setting": "MCF-10A", "value": 134, "unit": "nM"}]}
{"smiles": "C/C=C(\\C)C(=O)O[C@@H]1[C@@H](O)[C@@H]2O[C@H]3[C@H](O[C@@H](CCCCC)CCCCCCC(=O)CCC(=O)OC[C@@H](O2)[C@H]1OC(=O)CCc1ccccc1)O[C@H](C)[C@H](OC(C)=O)[C@@H]3O", "note": "[compound 14]", "values": [{"measurement": "IC50", "setting": "HCT116", "value": 1870, "unit": "nM"}, {"measurement": "inhibition of Ii membrane insertion", "setting": "[1]", "value": "far less effective inhibitor"}, {"measurement": "inhibition of production of secreted proteins compared with ipomoeassin F", "setting": "HCT-116 cells", "value": "less potently"}]}
{"smiles": "C/C=C(\\C)C(=O)O[C@@H]1[C@@H](O)[C@@H]2O[C@H]3[C@H](O[C@@H](CCC)CCCCC[C@H](OC(C)=O)C(=O)CCC(=O)OC[C@@H](O2)[C@H]1OC(=O)/C=C/c1ccccc1)O[C@H](C)[C@H](OC(C)=O)[C@@H]3O", "note": "[ipomoeassin D]", "values": [{"measurement": "IC50", "setting": "[2]", "value": 35, "unit": "nM"}]}
